Laboratory results from the supplement of paper PMC10307832.

Experiments:
Assay in all cases: relative viability (nuclei count vs DMSO), 5 days (fraction); higher = more cells survive
[1] = compound: C1CNCCC1C2=CC(=NN2)C3=CC=NC=C3 + COc1cccc2cc(-c3nc([C@H]4CC[C@H](C(=O)O)CC4)n4ncnc(N)c34)[nH]c12 [OSI-027] (partner 0.5 µM)
Procedure, shortened: (§1)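 Lung cancer cell lines, seeded in 1536-well plates, were treated the following day by pin tool with a single drug or with five library-drug doses (not always all listed) in √10 steps on top of a fixed anchor-drug dose. Cells were fixed and nuclei stained in one step after 5 days, and nuclei were counted. Relative viability is the nuclei count for treated wells divided by that for vehicle wells, reported as medians of duplicate plates.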

Tanzisertib + Vorinostat = compound: O[C@H]1CC[C@H](Nc2ncc3nc(Nc4c(F)cc(F)cc4F)n([C@H]4CCOC4)c3n2)CC1 [Tanzisertib] + O=C(CCCCCCC(=O)Nc1ccccc1)NO [Vorinostat] (partner 1 µM)
Procedure, shortened: as §1

[2] = compound: C[C@@H](N)c1ccc(C(=O)Nc2ccnc3[nH]ccc23)cc1 + Cc1cc(Nc2cc(N3CCN(C)CC3)nc(Sc3ccc(NC(=O)C4CC4)cc3)n2)n[nH]1 [Tozasertib] (partner 0.1 µM)
Procedure, shortened: as §1

Tanzisertib + Crizotinib = compound: O[C@H]1CC[C@H](Nc2ncc3nc(Nc4c(F)cc(F)cc4F)n([C@H]4CCOC4)c3n2)CC1 [Tanzisertib] + C[C@@H](Oc1cc(-c2cnn(C3CCNCC3)c2)cnc1N)c1c(Cl)ccc(F)c1Cl [Crizotinib] (partner 1 µM)
Procedure, shortened: as §1

Cell Line	relative viability ([1]; first compound 0.08 µM)	relative viability ([1]; first compound 0.8 µM)	relative viability ([1]; first compound 2.53 µM)	relative viability ([1]; first compound 8 µM)	relative viability (Tanzisertib + Vorinostat; first compound 0.08 µM)	relative viability (Tanzisertib + Vorinostat; first compound 0.253 µM)	relative viability (Tanzisertib + Vorinostat; first compound 0.8 µM)	relative viability (Tanzisertib + Vorinostat; first compound 2.53 µM)	relative viability (Tanzisertib + Vorinostat; first compound 8 µM)	relative viability ([2]; first compound 0.04 µM)	relative viability ([2]; first compound 0.1265 µM)	relative viability ([2]; first compound 0.4 µM)	relative viability ([2]; first compound 1.265 µM)	relative viability ([2]; first compound 4 µM)	relative viability (Tanzisertib + Crizotinib; first compound 0.08 µM)	relative viability (Tanzisertib + Crizotinib; first compound 0.253 µM)	relative viability (Tanzisertib + Crizotinib; first compound 0.8 µM)	relative viability (Tanzisertib + Crizotinib; first compound 2.53 µM)	relative viability (Tanzisertib + Crizotinib; first compound 8 µM)
BEN	0.303	0.295	0.233	0.33	0.593	0.583	0.613	0.588	0.611	0.466	0.432	0.53	0.484	0.48	0.846	0.775	0.914	0.845	0.878
SW 1573	–	0.666	0.727	0.752	1.21	0.666	0.72	1.04	0.566	0.121	0.208	0.174	0.174	0.156	0.769	0.798	0.769	0.872	0.611
ChaGo-K-1	0.559	0.557	0.589	0.575	0.81	0.801	0.71	0.779	0.57	0.223	0.219	0.221	0.246	0.21	1.21	1.13	1.07	1.09	1.02
SK-MES-1	0.51	0.565	0.624	0.593	1.27	1.1	1.04	1.07	0.78	0.881	0.921	0.854	0.825	0.629	0.986	0.97	0.961	0.965	0.916
NCI-H1755	0.738	–	0.754	0.69	0.756	0.791	0.828	0.624	0.79	0.568	0.602	0.725	0.581	0.559	0.85	0.821	0.863	0.839	0.777
NCI-H2023	0.347	0.48	0.457	0.503	0.826	0.502	0.803	0.555	0.625	0.426	0.377	0.395	0.462	0.279	0.568	0.651	0.684	0.607	0.567
LC-2-ad	–	0.868	0.936	0.908	0.731	0.69	0.702	0.715	0.493	0.469	0.523	0.512	–	0.441	0.521	0.501	0.415	0.43	0.426
NCI-H1666	0.871	0.967	0.794	0.878	1.03	0.988	1.11	1.01	1.05	0.605	0.618	0.63	0.698	0.593	0.902	0.934	1.09	1.03	1.09
201T	0.72	0.718	0.832	0.842	1.03	1.01	0.996	0.988	0.764	0.945	0.897	0.977	1.08	1.04	1.04	1.04	1.02	1.05	0.996
NCI-H2009	0.761	0.699	0.749	0.725	0.728	0.743	0.773	0.753	0.729	0.736	0.704	0.643	0.623	0.544	1.04	1.13	1.02	1.12	1.06
NCI-H2228	0.61	0.653	0.649	0.689	1.03	0.626	0.777	0.728	0.518	0.252	0.315	0.267	0.299	0.228	0.53	0.458	0.475	0.465	0.351
LU99A	0.292	0.291	0.331	0.304	0.565	0.447	0.51	0.559	0.519	–	0.278	0.234	0.227	0.227	0.557	0.567	0.513	0.638	0.586
NCI-H1437	0.835	0.922	0.896	0.97	0.876	0.896	0.88	0.895	0.97	0.462	0.433	0.448	0.436	0.408	1.07	0.89	0.94	1.01	0.919
EKVX	0.646	0.72	0.734	0.718	0.711	0.691	0.852	0.741	0.676	0.421	0.379	0.494	0.44	0.438	0.895	0.867	0.967	0.898	0.853
ABC-1	0.556	0.484	0.65	0.575	1.22	1.58	1.15	1.1	0.786	0.173	0.158	0.203	–	0.164	1.4	1.07	1.29	1.26	1.26
NCI-H520	0.247	0.2	0.236	0.311	0.866	0.749	0.789	0.724	0.73	0.52	0.462	0.448	0.535	0.424	0.862	0.821	0.745	0.68	0.863
LCLC-97TM1	0.57	0.508	0.519	0.531	0.862	0.749	0.638	0.86	0.169	0.208	0.227	0.34	0.343	0.279	–	0.331	0.417	0.262	0.427
